In patent publication US8778984B2, “Aldosterone synthase inhibitor” (Eli Lilly and Company, priority 2011, dated 2014):

Key:
[1] = tested on: testosterone production from H295R cells; assay: cells; type: cell-based, human; conditions: for inhibition of testosterone production (in words) / IC50: H295R cells; for IC50: Homo sapiens, NCI-H295R, 48 hours incubation, read-out: Testosterone IC50; for Selectivity ratio for aldosterone compared with testosterone: testosterone IC50 (H295R) relative to aldosterone IC50 (hcyp11B2)
Procedure: (§1) The human adrenocarcinoma cell line H295R is used to monitor the production of testosterone and estradiol in vitro. […] Various concentrations of test compounds in 1:3 dilution increments are added to the cell culture medium. After incubation for 48 hours, 100 μl culture medium is collected and d5-estradiol and d3-testosterone are added as ISs for estradiol and testosterone respectively.
(§2) An equal volume of sodium carbonate/sodium bicarbonate buffer (0.5 mol/L, pH 9.4) is added to the samples followed by freshly prepared dansyl chloride solution (50 μl, 20 mg/mL). Samples are mixed and incubated for 60 min at 60° C. The samples are then extracted 3× with EtOAc ([…]) using the FX, combining the organic layers in a new deep-well 96-well plate. The solvent is then dried in a GeneVac HT-4 or under nitrogen. The FX is used to reconstitute the samples in 50% MeOH/water ([…]) and the plates are heat-sealed.
(§3) A 40 μl aliquot of the sample is injected and a gradient from 20-100% MeOH in 0.95 min is initiated. An ABI QTRAP 4000 tandem mass spectrometer is used for MS/MS analysis in the positive ion mode. […] These peaks are separately integrated to give the peak areas. The area ratios of testosterone/IS and estradiol/IS are used to determine testosterone and estradiol concentrations by comparison to their respective standard curves. The detection limits for testosterone and estradiol are 0.1 ng/mL and 0.01 ng/mL respectively.

[2] = tested on: estradiol production from H295R cells; assay: cells; type: cell-based, human; conditions: for inhibition of estradiol production (in words) / IC50: H295R cells; for IC50: Homo sapiens, NCI-H295R, 48 hours incubation, read-out: Estradiol IC50; for Selectivity ratio for aldosterone compared with estradiol: estradiol IC50 (H295R) relative to aldosterone IC50 (hcyp11B2)
Procedure: as §1, §2, §3

[3] = biological target: T1, cynomolgus monkey cyp11B2 (Macaca fascicularis, UniProt A0A2K5UPL9); assay: Cynomolgus Monkey Aldosterone Inhibition Assay; type: cell-based; conditions: V79 cells expressing cynomolgus monkey cyp11B2; n=1; read-out: relative IC50, cynomolgus monkey aldosterone inhibition assay
T1 construct: expressed in transfected cells; host or cells: Chinese hamster fibroblast V79 cells
T1 sequence (A0A2K5UPL9 1-503): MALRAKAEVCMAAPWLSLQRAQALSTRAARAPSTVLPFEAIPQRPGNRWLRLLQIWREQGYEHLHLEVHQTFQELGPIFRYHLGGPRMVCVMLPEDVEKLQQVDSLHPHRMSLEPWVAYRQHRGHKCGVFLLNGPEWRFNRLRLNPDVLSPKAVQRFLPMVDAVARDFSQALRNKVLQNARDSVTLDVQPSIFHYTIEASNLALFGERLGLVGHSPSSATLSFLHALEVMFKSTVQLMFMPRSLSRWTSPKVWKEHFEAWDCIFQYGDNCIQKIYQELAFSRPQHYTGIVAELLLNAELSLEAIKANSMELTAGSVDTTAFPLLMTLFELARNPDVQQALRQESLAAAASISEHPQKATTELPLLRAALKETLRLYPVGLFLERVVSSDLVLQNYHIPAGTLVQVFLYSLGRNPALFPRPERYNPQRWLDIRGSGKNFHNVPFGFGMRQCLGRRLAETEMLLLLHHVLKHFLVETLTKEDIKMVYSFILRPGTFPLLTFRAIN
Procedure: Chinese hamster fibroblast cells (V79) constitutively expressing cynomolgus monkey cyp11B2 is established by transfection with a mammalian expression vector harboring the cynomolgus monkey cyp11B2 cDNA. This cell line was used to measure the activity of compounds in inhibiting […] from cynomolgus monkey enzyme. Cell culture condition and aldosterone detection method is performed following the same protocol described in the “Aldosterone inhibition assay”.

human cyp11B1 = biological target: T2, human cyp11B1 (Homo sapiens, UniProt P15538); assay: Cortisol Inhibition Assay (V79-human cyp11B1 cells, cortisol by LC-MS); type: cell-based; conditions: for Selectivity Ratio: IC50(hcyp11B1)/IC50(hcyp11B2); for IC50: V79-human cyp11B1 cells, cortisol production from 1 μM 11-deoxycortisol, 24 hours incubation, read-out: IC50 (hcyp11B1)
T2 construct: expressed in transfected cells
T2 sequence (P15538 25-503): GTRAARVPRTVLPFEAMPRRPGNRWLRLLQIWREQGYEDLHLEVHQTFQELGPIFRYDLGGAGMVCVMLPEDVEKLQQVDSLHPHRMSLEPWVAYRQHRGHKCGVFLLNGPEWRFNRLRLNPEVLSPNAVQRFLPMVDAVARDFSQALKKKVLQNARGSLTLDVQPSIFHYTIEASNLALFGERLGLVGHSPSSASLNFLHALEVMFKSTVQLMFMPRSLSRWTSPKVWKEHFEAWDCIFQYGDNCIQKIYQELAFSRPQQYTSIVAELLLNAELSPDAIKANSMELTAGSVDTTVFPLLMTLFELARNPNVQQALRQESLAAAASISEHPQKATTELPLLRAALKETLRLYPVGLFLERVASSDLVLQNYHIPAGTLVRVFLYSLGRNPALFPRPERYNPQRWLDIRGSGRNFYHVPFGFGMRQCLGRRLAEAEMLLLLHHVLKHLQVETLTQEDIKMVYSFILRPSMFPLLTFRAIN
Procedure: Chinese hamster fibroblast cells (V79) constitutively expressing human cyp11B1 are established by transfection with a mammalian expression vector harboring the human cyp11B1 cDNA under CMV promoter and a neomycin antibiotic resistant gene for selection in mammalian cells. V79 cells are transfected in T225 cm^2 flasks with the lipofectamine transfection reagent and the human cyp11B1 cDNA. Positive clones are selected with the selection antibiotic geneticin at 1 mg/mL. Cortisol production from transfected cells is initiated by the addition of 1 μM 11-deoxycortisol in the medium. After 24 hours incubation, culture medium is collected and cortisol concentration in the medium is determined using a liquid chromatography-mass spectrometry (LC-MS) method. The cell media (100 μL) is transferred to a new deep-well 96-well plate. A Beckman Coulter FX liquid handling system (modified for use with organic solvents) with a 96-tip head is used to add an IS solution to each well (10 μl of 200 ng/mL d-4-cortisol). The wells are then extracted 3× with EtOAc (300 μl) using the FX, combining the organic layers in a new deep-well 96-well plate. The solvent is then dried in a GeneVac HT-4 or under nitrogen. The FX is then used to reconstitute the samples in 50% MeOH/water (100 μl) and the plates are heat-sealed.
A 40 μl aliquot of the sample is injected and a gradient from 20-100% MeOH in 0.95 min is initiated. […] Starting conditions are then held for 1 minute to re-equilibrate the column. An ABI QTRAP 4000 tandem mass spectrometer is used for MS/MS analysis in the positive ion mode. […] These are respectively integrated to give the peak areas. The cortisol/IS area-ratio is used to determine cortisol concentration by comparison to a standard curve. The detection limit for cortisol is 1 ng/mL.
11-Deoxycortisol and various concentrations of test compounds in 1:3 dilution increments are added to the cell culture medium. After 24 hours incubation, 100 μl of cell medium are collected and cortisol concentration determined as described above. Data are fit to a 4 parameter-fit logistics curve to determine IC50 values.

| SMILES | inhibition of testosterone production (in words) [1] | IC50 [1] [nM] | Selectivity ratio for aldosterone compared with testosterone [1] | inhibition of estradiol production (in words) [2] | IC50 [2] [nM] | Selectivity ratio for aldosterone compared with estradiol [2] | IC50 [3] [nM] | Selectivity Ratio (human cyp11B1) | IC50 (human cyp11B1) [nM] |
| --- | --- | --- | --- | --- | --- | --- | --- | --- | --- |
| CC1(C)C[C@H](c2ccc(C#N)cc2)c2cn[nH]c21 (single isomer, unassigned) [Example 1] | weak inhibition | > 30000 | >6000 | weak inhibition | 13200 | 2640 | 2.46 | 33.0 | 165 |
| CC1(C)CC(c2ccc(C#N)cc2F)c2cn[nH]c21 (single isomer, unassigned; isomer 1) [Example 49, 4-(6,6-Dimethyl-4,5-dihydro-1H-cyclopenta[c]pyrazol-4-yl)-3-fluoro-benzonitrile, isomer 1] | weak inhibition | > 30000 | >4285 | weak inhibition | 22000 | 3143 | 4.1 | 44.4 | 311 |
